Experimental data as given in ChEMBL document CHEMBL1130369, “Design, syntheses and potentiating activities against methicillin resistant Staphylococcus aureus of cyclic analogs of LY301621” (1997).

Assays:
[1] = test system: Staphylococcus aureus; assay: Minimum concentration required to inhibit growth of methicillin resistant Staphylococcus aureus strain 447; type: functional
[2] = test system: Staphylococcus aureus; assay: Minimal synergizing concentration required to inhibit growth of Staphylococcus aureus strain 447 in the presence of 4 ug/mL of methicillin.; type: functional
[3] = test system: Staphylococcus aureus; assay: Ability of 40 ug to enlarge the zone of inhibition produced by 100 microg of methicillin in disk assay using Staphylococcus aureus strain 447; Synergy; type: functional, organism-based
[4] = test system: Staphylococcus aureus; assay: Minimum concentration required to inhibit growth of methicillin sensitive Staphylococcus aureus strain 446; type: functional
[5] = test system: Staphylococcus aureus; assay: Ability of 40 ug to enlarge the zone of inhibition produced by 100 microg of methicillin in disk assay using Staphylococcus aureus strain 447; No synergy; type: functional, organism-based
[6] = test system: Staphylococcus aureus; assay: Ability of 40 ug to enlarge the zone of inhibition produced by 100 microg of methicillin in disk assay using Staphylococcus aureus strain 447; synergy; type: functional, organism-based
[7] = Staphylococcus aureus, read-out: MIC

Row | Compound | MSC [2] [µg/mL] | MIC [4, 7] [mg/L] | also measured
1 | O=C1N[C@@H](C(c2ccccc2)c2ccccc2)C(=O)N2CCCC2C(=O)N[C@](CO)(Cc2ccccc2)C(=O)Nc2ccccc21 (single isomer, unassigned) | >128 |  | MIC [1]: >128 mg/L; Synergy with methicillin [3]: Synergy
2 | O=C1N[C@@H](C(c2ccccc2)c2ccccc2)C(=O)N2CCCC2C(=O)NC(CO)(Cc2ccccc2)C(=O)Nc2ccccc21 (single isomer, unassigned; 1b) [listing 1 of 2 here] |  |  | Synergy with methicillin [3]: Synergy
3 | O=C1N[C@@H](C(c2ccccc2)c2ccccc2)C(=O)N2CCC[C@@H]2C(=O)NCc2ccccc2-c2ccccc21 | >100 | > 100 | Synergy with methicillin [5]: No synergy
4 | O=C1N[C@@H](C(c2ccccc2)c2ccccc2)C(=O)N2CCCC2C(=O)NC(CO)(Cc2ccccc2)C(=O)Nc2ccccc21 (single isomer, unassigned; 1a) [listing 1 of 2 here] |  |  | Synergy with methicillin [5]: No synergy
5 | O=C(N[C@@H](C(=O)N1CCC[C@H]1C(=O)N[C@H](CO)Cc1ccccc1)C(c1ccccc1)c1ccccc1)OCc1ccccc1 | 12.5 | > 100 | Synergy with methicillin [6]: synergy
6 | O=C1N[C@@H](C(c2ccccc2)c2ccccc2)C(=O)N2CCCC2C(=O)NC(CO)(Cc2ccccc2)C(=O)Nc2ccccc21 (single isomer, unassigned; 1b) [listing 2 of 2 here] | 100 | > 100 | 
7 | O=C1N[C@@H](C(c2ccccc2)c2ccccc2)C(=O)N2CCCC2C(=O)NC(CO)(Cc2ccccc2)C(=O)Nc2ccccc21 (single isomer, unassigned; 1a) [listing 2 of 2 here] | >100 | > 128 | MIC [1, 7]: > 100 mg/L
8 | O=C1N[C@@H](C(c2ccccc2)c2ccccc2)C(=O)N2CCCC2C(=O)N[C@@](CO)(Cc2ccccc2)C(=O)Nc2ccccc21 (single isomer, unassigned) | >128 |  | MIC [4]: >128 mg/L
